Assay results reported in ChEMBL document CHEMBL4184194, “An appraisal on synthetic and pharmaceutical perspectives of pyrazolo[4,3-d]pyrimidine scaffold” (Bioorg Med Chem, 2018).
In brackets after ≈: the same amount, converted by molar mass.

How the values were obtained:
[1] = test system: K562; assay: Antiproliferative activity against human K562 cells; type: functional, cell-based
[2] = molecular target: Cyclin-dependent kinase 1/cyclin B1 (Homo sapiens, UniProt P06493); assay: Inhibition of CDK1/CyclinB (unknown origin); type: protein-complex assay
[3] = test system: Candida albicans; assay: Fungicidal activity against Candida albicans ATCC 10231 by two-fold serial dilution assay; type: functional
[4] = test system: Candida albicans; assay: Antimicrobial activity against Candida albicans ATCC 10231 by two-fold serial dilution assay; type: functional
[5] = test system: Nicotiana tabacum; assay: Growth inhibition of cytokinin-requiring tobacco cells; type: functional; conditions: for TGI: read-out: GI100
[6] = test system: Nicotiana tabacum; assay: Toxicity in Nicotiana tabacum; type: organism-based
[7] = test system: Nicotiana tabacum; assay: Anticytokinin activity against Nicotiana tabacum; type: functional, organism-based
[8] = test system: Nicotiana tabacum; assay: Growth inhibition of cytokinin-autonomous tobacco cells; type: functional; conditions: for TGI: read-out: GI100
[9] = test system: MCF7; assay: Growth inhibition of human MCF7 cells after 72 hrs by Calcein AM dye based fluorescence assay; type: functional; conditions: MCF7, 72 h
[10] = test system: K562; assay: Growth inhibition of human K562 cells after 72 hrs by Calcein AM dye based fluorescence assay; type: functional; conditions: K562, 72 h
[11] = molecular target: Cyclin-dependent kinase 2/cyclin E1 (Homo sapiens, UniProt P24941); assay: Inhibition of recombinant human full length N-terminal GST-tagged CDK2 (M1 to L298 residues)/CyclinE1 (M1 to A395 residues) expressed in baculovirus infected Sf9 insect cells using histone H1 as substrate by [gamma33P]ATP-based assay
[12] = molecular target: Cyclin-dependent kinase 4/cyclin D1 (Homo sapiens, UniProt P11802); assay: Inhibition of recombinant human N-terminal GST-tagged CDK4 (S4 to E303 residues)/CyclinD1 (Q4 to I295 residues) expressed in Sf9 insect cells
[13] = molecular target: CDK7/Cyclin H/MNAT1 (Homo sapiens, UniProt P50613); assay: Inhibition of recombinant human full length N-terminal GST/His6-tagged CDK7 (M1 to F346 residues)/N-terminal His6-tagged CyclinH (M1 to L323 residues)/N-terminal His6-tagged MAT1 (M1 to S306 residues) expressed in Sf9 insect cells
[14] = test system: Human alphaherpesvirus 1; assay: Antiviral activity against HSV1 MP infected in African green monkey Vero cells assessed as inhibition of plaque formation after 48 hrs; type: functional; conditions: Human alphaherpesvirus 1, MP, read-out: ED50 (the source's name)
[15] = molecular target: CDK6/cyclin D1 (Homo sapiens, UniProt Q00534); assay: Inhibition of recombinant human full length N-terminal GST-tagged CDK6 (M1 to A326 residues)/CyclinD1 (Q4 to I295 residues) expressed in Sf9 insect cells
[16] = molecular target: CDK9/cyclin T1 (Homo sapiens, UniProt P50750); assay: Inhibition of recombinant human full length N-terminal GST/His6-tagged CDK9 (M1 to F372 residues)/N-terminal His6-tagged CyclinT1 (M1 to K726 residues) expressed in Sf9 insect cells
[17] = test system: Semliki Forest virus; assay: Antiviral activity against Semliki forest virus infected in Swiss Webster mouse assessed as mouse survival at 50 mg/kg, ip measured after 18 to 24 hrs; type: functional
[18] = test system: Semliki Forest virus; assay: Antiviral activity against Semliki forest virus infected in Swiss Webster mouse assessed as mean survival time at 10 mg/kg, ip; type: functional
[19] = test system: Semliki Forest virus; assay: Antiviral activity against Semliki forest virus infected in Swiss Webster mouse assessed as mean survival time at 30 mg/kg, ip; type: functional
[20] = test system: Semliki Forest virus; assay: Antiviral activity against Semliki forest virus infected in Swiss Webster mouse assessed as mouse survival at 200 mg/kg, ip measured after 18 to 24 hrs; type: functional
[21] = test system: Semliki Forest virus; assay: Antiviral activity against Semliki forest virus infected in Swiss Webster mouse assessed as mouse survival at 100 mg/kg, ip measured after 18 to 24 hrs; type: functional
[22] = test system: Semliki Forest virus; assay: Antiviral activity against Semliki forest virus infected in Swiss Webster mouse assessed as mean survival time at 200 mg/kg, ip; type: functional
[23] = test system: Semliki Forest virus; assay: Antiviral activity against Semliki forest virus infected in Swiss Webster mouse assessed as mean survival time at 50 mg/kg, ip; type: functional
[24] = test system: Semliki Forest virus; assay: Antiviral activity against Semliki forest virus infected in Swiss Webster mouse assessed as mean survival time at 100 mg/kg, ip; type: functional
[25] = test system: Semliki Forest virus; assay: Antiviral activity against Semliki forest virus infected in Swiss Webster mouse assessed as mouse survival at 30 mg/kg, ip measured after 18 to 24 hrs; type: functional
[26] = test system: Semliki Forest virus; assay: Antiviral activity against Semliki forest virus infected in Swiss Webster mouse assessed as mouse survival at 10 mg/kg, ip measured after 18 to 24 hrs; type: functional
[27] = test system: Escherichia coli; assay: Bactericidal activity against Escherichia coli NCTC 10418 by two-fold serial dilution assay; type: functional
[28] = test system: Pseudomonas aeruginosa; assay: Antimicrobial activity against Pseudomonas aeruginosa ATCC 9027 by two-fold serial dilution assay; type: functional
[29] = test system: Staphylococcus aureus; assay: Bactericidal activity against Staphylococcus aureus ATCC 6538 by two-fold serial dilution assay; type: functional
[30] = test system: Pseudomonas aeruginosa; assay: Bactericidal activity against Pseudomonas aeruginosa ATCC 9027 by two-fold serial dilution assay; type: functional

Sequence of CDK7/Cyclin H/MNAT1 (P51946 whole entry, the tested form may be a part): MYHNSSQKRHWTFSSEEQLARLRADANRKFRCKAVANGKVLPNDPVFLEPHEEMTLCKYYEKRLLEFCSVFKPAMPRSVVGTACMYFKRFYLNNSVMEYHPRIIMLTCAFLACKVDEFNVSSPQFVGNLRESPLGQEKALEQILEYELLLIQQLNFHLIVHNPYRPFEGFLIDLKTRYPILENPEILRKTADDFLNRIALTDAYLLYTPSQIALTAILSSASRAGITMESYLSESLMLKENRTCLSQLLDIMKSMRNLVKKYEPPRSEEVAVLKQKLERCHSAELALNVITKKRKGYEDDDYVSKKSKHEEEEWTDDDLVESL
Sequence of CDK7/Cyclin H/MNAT1 (P50613 whole entry, the tested form may be a part): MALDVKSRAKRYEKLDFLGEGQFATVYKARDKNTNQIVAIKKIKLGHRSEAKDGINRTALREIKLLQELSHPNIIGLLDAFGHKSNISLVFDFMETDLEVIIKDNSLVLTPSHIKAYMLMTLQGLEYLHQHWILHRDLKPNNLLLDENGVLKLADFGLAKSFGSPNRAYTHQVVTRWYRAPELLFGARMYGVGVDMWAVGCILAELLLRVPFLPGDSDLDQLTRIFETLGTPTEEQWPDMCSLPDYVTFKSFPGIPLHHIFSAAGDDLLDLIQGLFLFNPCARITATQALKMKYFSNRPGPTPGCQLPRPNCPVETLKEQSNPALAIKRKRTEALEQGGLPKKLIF
Sequence of CDK7/Cyclin H/MNAT1 (P51948 whole entry, further chain, the tested form may be a part): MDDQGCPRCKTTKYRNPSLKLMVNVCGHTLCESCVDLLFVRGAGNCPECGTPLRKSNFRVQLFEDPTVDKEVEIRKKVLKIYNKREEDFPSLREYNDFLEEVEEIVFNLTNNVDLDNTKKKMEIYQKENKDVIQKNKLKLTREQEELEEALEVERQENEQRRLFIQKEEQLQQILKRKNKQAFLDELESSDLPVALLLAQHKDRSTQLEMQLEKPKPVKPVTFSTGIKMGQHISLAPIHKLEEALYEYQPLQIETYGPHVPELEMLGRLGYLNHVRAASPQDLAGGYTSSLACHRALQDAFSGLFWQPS
Sequence of CDK6/cyclin D1 (P24385 whole entry, the tested form may be a part): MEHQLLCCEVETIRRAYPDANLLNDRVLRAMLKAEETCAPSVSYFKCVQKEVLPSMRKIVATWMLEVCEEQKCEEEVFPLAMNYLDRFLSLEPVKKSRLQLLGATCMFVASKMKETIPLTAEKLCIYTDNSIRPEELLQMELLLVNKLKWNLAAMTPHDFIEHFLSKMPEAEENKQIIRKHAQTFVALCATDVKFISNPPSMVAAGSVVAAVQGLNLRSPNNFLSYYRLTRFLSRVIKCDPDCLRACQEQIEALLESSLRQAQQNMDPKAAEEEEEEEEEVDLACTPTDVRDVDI
Sequence of CDK6/cyclin D1 (Q00534 whole entry, the tested form may be a part): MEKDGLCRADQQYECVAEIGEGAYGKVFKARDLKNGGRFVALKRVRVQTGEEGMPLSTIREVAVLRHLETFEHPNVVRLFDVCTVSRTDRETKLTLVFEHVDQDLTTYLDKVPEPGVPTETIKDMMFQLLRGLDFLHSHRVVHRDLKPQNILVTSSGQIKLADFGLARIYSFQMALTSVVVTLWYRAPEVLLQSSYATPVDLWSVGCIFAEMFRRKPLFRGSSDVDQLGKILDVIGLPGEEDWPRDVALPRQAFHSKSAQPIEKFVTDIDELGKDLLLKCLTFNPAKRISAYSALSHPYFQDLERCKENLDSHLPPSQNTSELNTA
Sequence of Cyclin-dependent kinase 4/cyclin D1 (P11802 whole entry, the tested form may be a part): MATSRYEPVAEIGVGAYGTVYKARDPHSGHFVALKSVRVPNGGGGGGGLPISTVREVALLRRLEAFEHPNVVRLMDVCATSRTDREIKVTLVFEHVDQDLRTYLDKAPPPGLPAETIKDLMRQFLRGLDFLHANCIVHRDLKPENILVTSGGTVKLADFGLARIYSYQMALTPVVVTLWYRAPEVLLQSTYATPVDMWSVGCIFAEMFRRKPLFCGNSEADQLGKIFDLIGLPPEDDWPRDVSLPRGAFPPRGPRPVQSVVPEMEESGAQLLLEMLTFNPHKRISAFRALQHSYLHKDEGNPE
Sequence of Cyclin-dependent kinase 4/cyclin D1 (P24385 whole entry, further chain, the tested form may be a part): as the sequence (P24385 whole entry, the tested form may be a part) above
Sequence of CDK9/cyclin T1 (O60563 whole entry, the tested form may be a part): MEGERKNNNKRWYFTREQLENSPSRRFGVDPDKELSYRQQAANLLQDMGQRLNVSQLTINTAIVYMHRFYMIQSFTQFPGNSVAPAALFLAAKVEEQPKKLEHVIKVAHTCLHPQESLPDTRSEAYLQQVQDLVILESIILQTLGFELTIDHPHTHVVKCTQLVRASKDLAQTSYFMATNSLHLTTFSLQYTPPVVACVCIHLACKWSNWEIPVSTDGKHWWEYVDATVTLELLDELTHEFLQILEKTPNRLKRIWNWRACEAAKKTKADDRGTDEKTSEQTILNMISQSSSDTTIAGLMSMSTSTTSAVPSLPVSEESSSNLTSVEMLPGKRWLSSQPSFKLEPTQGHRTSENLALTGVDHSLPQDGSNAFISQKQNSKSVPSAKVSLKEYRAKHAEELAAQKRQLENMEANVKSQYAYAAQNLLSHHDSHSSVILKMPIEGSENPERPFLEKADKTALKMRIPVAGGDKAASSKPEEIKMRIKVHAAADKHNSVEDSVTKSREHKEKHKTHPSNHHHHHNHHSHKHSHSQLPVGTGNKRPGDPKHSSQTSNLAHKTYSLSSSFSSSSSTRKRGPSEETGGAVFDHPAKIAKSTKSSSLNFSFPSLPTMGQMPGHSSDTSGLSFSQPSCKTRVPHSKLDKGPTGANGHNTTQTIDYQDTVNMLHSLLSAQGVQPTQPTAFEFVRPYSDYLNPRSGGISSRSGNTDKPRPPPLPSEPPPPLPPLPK
Sequence of CDK9/cyclin T1 (P50750 whole entry, the tested form may be a part): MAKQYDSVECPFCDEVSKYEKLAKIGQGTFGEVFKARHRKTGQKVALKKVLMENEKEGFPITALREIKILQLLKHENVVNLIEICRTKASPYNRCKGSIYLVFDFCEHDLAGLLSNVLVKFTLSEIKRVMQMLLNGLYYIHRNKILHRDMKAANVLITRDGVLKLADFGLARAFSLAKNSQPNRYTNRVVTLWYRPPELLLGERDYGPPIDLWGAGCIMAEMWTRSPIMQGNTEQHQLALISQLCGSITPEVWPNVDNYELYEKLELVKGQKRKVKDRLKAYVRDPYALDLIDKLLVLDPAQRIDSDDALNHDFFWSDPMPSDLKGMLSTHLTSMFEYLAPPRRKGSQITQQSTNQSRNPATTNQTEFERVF
Sequence of Cyclin-dependent kinase 1/cyclin B1 (P06493 whole entry): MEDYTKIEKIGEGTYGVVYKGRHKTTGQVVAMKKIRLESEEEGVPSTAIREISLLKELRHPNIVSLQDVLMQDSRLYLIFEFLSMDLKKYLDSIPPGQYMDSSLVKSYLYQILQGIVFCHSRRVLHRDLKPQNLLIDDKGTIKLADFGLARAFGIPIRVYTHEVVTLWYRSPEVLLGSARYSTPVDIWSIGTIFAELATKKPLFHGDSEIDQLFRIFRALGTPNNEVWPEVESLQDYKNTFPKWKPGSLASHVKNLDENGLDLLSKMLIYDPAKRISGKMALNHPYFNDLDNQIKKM
Sequence of Cyclin-dependent kinase 1/cyclin B1 (P14635 whole entry, further chain): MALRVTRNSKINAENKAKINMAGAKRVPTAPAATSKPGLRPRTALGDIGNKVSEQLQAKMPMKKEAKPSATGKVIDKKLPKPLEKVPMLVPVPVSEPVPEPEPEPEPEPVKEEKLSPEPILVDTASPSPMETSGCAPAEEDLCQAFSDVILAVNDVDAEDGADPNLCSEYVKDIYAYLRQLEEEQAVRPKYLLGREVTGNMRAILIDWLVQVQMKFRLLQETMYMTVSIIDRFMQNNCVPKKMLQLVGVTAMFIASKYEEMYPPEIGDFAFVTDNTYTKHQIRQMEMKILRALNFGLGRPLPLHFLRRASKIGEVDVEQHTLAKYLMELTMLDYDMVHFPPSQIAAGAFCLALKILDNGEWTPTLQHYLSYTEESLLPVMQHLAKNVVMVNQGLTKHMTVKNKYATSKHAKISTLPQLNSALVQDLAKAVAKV

Compound: CC(C)c1n[nH]c2c(NCc3ccccc3O)ncnc12
- IC50 [1]: 54 µM
- IC50 [2]: 440 nM

Compound: O=c1[nH]cnc2c(-c3ccc(Br)cc3)n[nH]c12
- MFC [3]: 250 µg/mL (≈ 859 µM)
- MIC [4]: 250 µg/mL (≈ 859 µM)

Compound: CCCCCNc1ncnc2c(C)n[nH]c12
- GI50 [5]: 20 nM
- TGI [5]: 50 nM
- IC50 [6]: 200 nM
- IC50 [7]: 30 nM
- GI50 [8]: 25 nM
- TGI [8]: 50 nM

Compound: Cc1n[nH]c2c(NCCC(C)C)ncnc12
- IC50 [6]: 730 nM
- IC50 [7]: 100 nM

Compound: CC[C@@H](CO)Nc1nc(NCc2ccccc2N)c2[nH]nc(C(C)C)c2n1
- GI50 [9]: 10.9 µM
- GI50 [10]: 22.3 µM
- IC50 [11]: 15.3 nM

Compound: CC(C)c1n[nH]c2c(NCc3ccccc3)nc(NC3CCC(N)CC3)nc12 (stereo not given)
- IC50 [12]: 6.6 µM
- IC50 [13]: > 100 µM

Compound: Cc1nn([C@@H]2O[C@H](CO)[C@@H](O)[C@H]2O)c2c(=O)n(-c3ccc(Cl)cc3)cnc12
- EC50 [14]: 50 µM

Compound: Cc1n[nH]c2c(NCc3ccccc3)ncnc12
- GI50 [5]: 40 nM
- TGI [5]: 150 nM
- GI50 [8]: 30 nM
- TGI [8]: 100 nM

Compound: CCCCCCNc1ncnc2c(C)n[nH]c12
- IC50 [6]: 500 nM
- IC50 [7]: 30 nM

Compound: COc1ccc(Cn2cnc3c(C)nn([C@@H]4O[C@H](CO)[C@@H](O)[C@H]4O)c3c2=O)cc1
- EC50 [14]: 49.5 µM

Compound: CC(C)c1n[nH]c2c(NCc3ccccc3)nc(NC3CCCCC3N)nc12 (stereo not given)
- IC50 [13]: > 100 µM
- IC50 [15]: > 100 µM
- IC50 [16]: > 1000 nM

Compound: Cn1nc([C@@H]2O[C@H](CO)[C@@H](O)[C@H]2O)c2nc(N)[nH]c(=O)c21
- survival at 50 mg/kg [17]: 67%
- MST [18]: 9.6 days
- MST [19]: 9.2 days
- survival at 200 mg/kg [20]: 58%
- survival at 100 mg/kg [21]: 67%
- MST [22]: 7 days
- MST [23]: 6 days
- MST [24]: 8 days
- survival at 30 mg/kg [25]: 50%
- survival at 10 mg/kg [26]: 8%

Compound: CCCCn1cnc2c(C)nn([C@@H]3O[C@H](CO)[C@@H](O)[C@H]3O)c2c1=O
- EC50 [14]: 152 µM

Compound: CC(C)c1n[nH]c2c(NCc3ccccc3N)nc(NC[C@@H](C)O)nc12
- GI50 [9]: 4.4 µM
- GI50 [10]: 15.5 µM
- IC50 [11]: 16.5 nM

Compound: CC[C@H](CO)Nc1nc(NCc2ccccc2N)c2[nH]nc(C(C)C)c2n1
- GI50 [9]: 2.8 µM
- GI50 [10]: 9.2 µM
- IC50 [11]: 10.5 nM

Compound: CC1(C)S[C@@H]2[C@H](NC(=O)[C@H](N)c3ccccc3)C(=O)N2[C@H]1C(=O)O [AMPICILLIN]
- MBC [27]: 31.2 µg/mL (≈ 89.4 µM)
- MIC [28]: 250 µg/mL (≈ 715 µM)
- MBC [29]: 15.6 µg/mL (≈ 44.7 µM)
- MBC [30]: 500 µg/mL (≈ 1430 µM)

Compound: Clc1ccccc1C(c1ccccc1)(c1ccccc1)n1ccnc1 [CLOTRIMAZOLE]
- MFC [3]: 15.6 µg/mL (≈ 45.3 µM)
- MIC [4]: 7.81 µg/mL (≈ 22.6 µM)

Compound: O=c1[nH]c(=O)n([C@H]2C[C@H](O)[C@@H](CO)O2)cc1I [IDOXURIDINE]
- EC50 [14]: 1.2 µM

Compound: Nc1nc(=O)c2sc(=O)n([C@@H]3O[C@H](CO)[C@@H](O)[C@H]3O)c2[nH]1 [ISATORIBINE]
- survival at 100 mg/kg [21]: 92%
- MST [24]: 8 days

Compound: Cn1cnc2c(NCc3ccccc3)nc(NCCO)nc21 [OLOMOUCINE]
- IC50 [1]: 163 µM
